For orientation: viability means a read-out of living cells in per cent, often relative to untreated cells.

Results on 23 compounds are retold here after the supplement of paper PMC5412046.

Assay [1] has as its system SB.mhdgc-1. The experiment in a line: area under the dose-response curve of % viability (trapezoidal, 11 doses) (% viability x log10 concentration); higher = less cytotoxic. To be noted: SB.mhdgc-1 (hereditary c.1380delA CDH1 gastric cancer). The method in brief:
(§1)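 Hereditary or sporadic patient-derived gastric cancer cells (500 cells in 5 μL medium per 1536 well) received 23 nL compound in DMSO by pintool at 11 threefold-diluted concentrations, with the top concentration recorded per compound. After 48 h, CellTiter-Glo was added for 30 min at room temperature and luminescence read on a ViewLux. Values are DMSO-normalised viability, either at the highest concentration or as trapezoidal area under the curve.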

The test system of assay [2] is SB.msgc-1. Described as above. To be noted: SB.msgc-1 (sporadic gastric cancer). In outline:
as §1

Assay [3] deals with SB.mhdgc-1. The experiment in a line: viability at highest tested concentration (MAXR) relative to DMSO; higher = less cytotoxic. To be noted: SB.mhdgc-1 (hereditary c.1380delA CDH1 gastric cancer). The method in brief:
as §1

The subject of assay [4] is SB.msgc-1. The assay is described as above. To be noted: SB.msgc-1 (sporadic gastric cancer). The method in brief:
as §1

Take `CCCC(C)(COC(N)=O)COC(=O)NC(C)C` (configuration not stated) [Carisoprodol] (top concentration 46.0829 µM): the “area under the dose-response curve” value was 515 in the assay with SB.mhdgc-1 [1] and 538 with SB.msgc-1 [2]. Besides, the viability with SB.mhdgc-1 [3] worked out at 98.1%; with SB.msgc-1 [4], 120%.
The corresponding values for `O=C(NCc1ccncc1)C12C[C@H]3C[C@@H](C1)CC(c1ccc(Cl)cc1)(C3)C2` (top concentration 46.0829 µM) are 472, 469, 41.2% and 41.1%.
In the case of `Cc1cnc(Nc2ccc(F)cc2Cl)nc1-c1c[nH]c(C(=O)N[C@H](CO)c2cccc(Cl)c2)c1` (top concentration 46.0829 µM), the “area under the dose-response curve” value in the assay with SB.mhdgc-1 [1] amounted to 351; in the assay on SB.msgc-1 [2], 429. The viability was 2.17% with SB.mhdgc-1 [3] and 7.36% in the assay on SB.msgc-1 [4].
Regarding `CN(C)c1ccc(-c2nc3c(N4CCN(CC(=O)Nc5nccs5)CC4)c(Cl)cnc3[nH]2)cc1` (top concentration 46.0829 µM), the “area under the dose-response curve” value in the assay with SB.mhdgc-1 [1] was found to be 410; in the assay on SB.msgc-1 [2], 460. In addition, the viability with SB.mhdgc-1 [3] worked out at 42.8%; in the assay on SB.msgc-1 [4], 73%.
In the same order, the values of `NC(CO)C(=O)NNCc1ccc(O)c(O)c1O` (configuration not stated) [Benserazide] (top concentration 46.0829 µM) are 558, 520, 46.8% and 104%.
The corresponding values for `O=C(O)CCCCC(CCSCc1ccccc1)SCc1ccccc1` (configuration not stated) [CPI-613] (top concentration 46.0829 µM) are 525, 512, 81.6% and 67.5%.
Turning to `Cn1c(=O)n(-c2ccc(C(C)(C)C#N)cc2)c2c3cc(-c4cnc5ccccc5c4)ccc3ncc21` [BEZ235] (top concentration 46.0829 µM), the figures for the “area under the dose-response curve” value with SB.mhdgc-1 [1] and in the assay with SB.msgc-1 [2] were 345 and 425, respectively. Also, the viability with SB.mhdgc-1 [3] was 26.5%; with SB.msgc-1 [4] it was 47.4%.
The corresponding values for `CCn1c(=O)c2c(nc(/C=C/c3ccc(OC)c(OC)c3)n2C)n(CC)c1=O` [Istradefylline] (top concentration 46.0829 µM) are 543, 546, 64.2% and 67.9%.
In the same order, the values of `N#CC[C@H](C1CCCC1)n1cc(-c2ncnc3[nH]ccc23)cn1` [Ruxolitinib] (top concentration 46.0829 µM) are 522, 497, 80% and 72.3%.
Consider `C[C@@H]1CC[C@H]2[C@@H](C)C(=O)O[C@@H]3O[C@@]4(C)CC[C@@H]1[C@]32OO4` [Artemisinin] (top concentration 46.0829 µM), for which the results for the “area under the dose-response curve” value in the assay on SB.mhdgc-1 [1] and in the assay on SB.msgc-1 [2] were 460 and 512, respectively. For the same compound, the viability in the assay with SB.mhdgc-1 [3] amounted to 90.5%; with SB.msgc-1 [4], 83.8%.
In the same order, the values of `CCCCCCCCCCCCCC(=O)N[C@H](CO)[C@H](O)c1ccc([N+](=O)[O-])cc1` [D-NMAPPD] (top concentration 46.0829 µM) are 497, 499, 45.8% and 75.2%.
In the same order, the values of `O=C(NNC(=O)c1ccc(CN[S+](=O)([O-])c2ccc(F)c(Cl)c2)cc1)c1ccccc1` [TCN-201] (top concentration 46.0829 µM) are 554, 495, 103% and 98.1%.
In the same order, the values of `CN1CC/C(CC1)=C3\c4ccccc4CC(=O)c2sccc23` [Ketotifen] (top concentration 46.0829 µM) are 446, 468, 41% and 9%.
`Cc1n[nH]c(C)c1Cc1sc2c(c1C(=O)N1C[C@H](O)CO1)c(=O)n(C)c(=O)n2CC(C)C` (top concentration 46.0829 µM): the “area under the dose-response curve” value with SB.mhdgc-1 [1] turned out to be 549; in the assay with SB.msgc-1 [2], 620. The figures for the viability in the assay on SB.mhdgc-1 [3] and in the assay with SB.msgc-1 [4] were 92.3% and 118%, respectively.
In the same order, the values of `Cl.O[C@@H](CNC[C@H](O)[C@H]1CCc2cc(F)ccc2O1)[C@@H]1CCc2cc(F)ccc2O1` [Nebivolol] (top concentration 46.0829 µM) are 511, 524, 10.2% and 79%.
In the same order, the values of `N#C[C@H](O[C@@H]1O[C@H](CO[C@@H]2O[C@H](CO)[C@@H](O)[C@H](O)[C@H]2O)[C@@H](O)[C@H](O)[C@H]1O)c1ccccc1` [Amygdalin] (top concentration 46.0829 µM) are 467, 380, 3.58% and 5.78%.
The corresponding values for `Cc1ccccc1C(=O)Nc1ccc(C(=O)N2CCCC(O)c3cc(Cl)ccc32)c(C)c1` (configuration not stated) [Tolvaptan] (top concentration 46.0829 µM) are 497, 533, 14% and 94.1%.
For the compound `Cc1ccc(-c2ncn(-c3ccc(Nc4nccc(-c5cccc(N6CCOCC6)c5)n4)cc3)n2)cn1` [SR-3306] (top concentration 46.0829 µM), the “area under the dose-response curve” value is 324 with SB.mhdgc-1 [1] and 261 in the assay on SB.msgc-1 [2]. Besides, the figures for the viability in the assay on SB.mhdgc-1 [3] and with SB.msgc-1 [4] were 23.7% and 24.7%, respectively.
The corresponding values for `OC1=C(O)C2=C(\C=C/C(=O)O2)C=C1` [Daphnetin] (top concentration 46.0829 µM) are 468, 535, 72.2% and 61.4%.
The corresponding values for `CC1CCC(C(=O)N(c2cc(C#CC(C)(C)C)sc2C(=O)O)C2CCC(O)CC2)CC1` (configuration not stated) [Lomibuvir] (top concentration 46.0829 µM) are 408, 481, 73.3% and 27.4%.
Turning to `CC(C)(O)Cn1c(NC(=O)c2ccc(-c3cn[nH]c3)s2)nc2cc(CN3CCOCC3)ccc21` (top concentration 46.0829 µM), the “area under the dose-response curve” value in the assay on SB.mhdgc-1 [1] is 366; in the assay with SB.msgc-1 [2] it was 455. Moreover, the viability in the assay with SB.mhdgc-1 [3] came to 7.07%; in the assay with SB.msgc-1 [4] it was 23.5%.
Take `CC(C)c1onc(-c2c(Cl)cccc2Cl)c1COc1ccc(/C=C/c2cccc(C(=O)O)c2)c(Cl)c1` [GW-4064X] (top concentration 46.0829 µM): the “area under the dose-response curve” value came out at 501 in the assay with SB.mhdgc-1 [1] and 588 in the assay with SB.msgc-1 [2]. Besides, the viability is 80.6% in the assay on SB.mhdgc-1 [3] and 74.3% with SB.msgc-1 [4].
The corresponding values for `FC1=CC=C(CN2\C=C/C=C(/C(=O)N[C@@H](COC3=CC4=C(NC(=O)N4)C=C3)C5=CC=CC=C5)C2=O)C=C1F` [PDK1 inhibitor] (top concentration 46.0829 µM) are 469, 467, 60.7% and 44.8%.
